Data taken from ChEMBL document CHEMBL1201862, “PubChem BioAssay data set” (2004).
One block for each compound: values may come before it. The source made the active and inactive calls.

How the values were obtained:
[1] = target: T1, Probable nicotinate-nucleotide adenylyltransferase (Staphylococcus aureus (strain N315), UniProt P65502); type: functional, Staphylococcus aureus subsp. aureus N315; conditions: read-out: IC50_Mean;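 on IC50 Mean: confirmatory dose-response retesting of NadD inhibitor hits first found in an ultra-high-throughput screen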
[2] = target: T1, Probable nicotinate-nucleotide adenylyltransferase; type: functional, Staphylococcus aureus subsp. aureus N315
[3] = target: ADP-ribosylation factor GTPase-activating protein 1 (Rattus norvegicus, UniProt Q62848); assay: Fluorescence polarization-based biochemical high throughput dose response screening assay to identify inhibitors of ADP-ribosylation factor GTPase activating protein 1 (ARFGAP1).; type: functional
[4] = target: Low molecular weight phosphotyrosine protein phosphatase (Homo sapiens, UniProt P24666); type: functional; conditions: read-out: IC50_Mean;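 further: Dose-response confirmation assay measuring inhibition of LMPTP enzyme activity by fluorescence intensity read-out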
[5] = target: Photoreceptor-specific nuclear receptor (Homo sapiens, UniProt Q9Y5X4); type: functional, cell-based;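 further: CHO-S cells with Gal4-NCOR and VP16-NR2E3 two-hybrid luciferase reporter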
[6] = Luminescence Cell-Based Dose Retest to Confirm Inhibitors of Cancer Stem Cells. [Related pubchem assays (depositor defined):AID2717, AID2721]; type: functional; conditions: Homo sapiens
[7] = target: Peroxisome proliferator-activated receptor gamma/Nuclear receptor coactivator 1 (Homo sapiens, UniProt P37231); assay: (§1) TR-FRET dose response biochemical High Throughput Screening assay for agonists of the steroid receptor coactivator 1 (SRC-1) recruitment by the peroxisome proliferator-activated receptor gamma (PPAR gamma): non-selective agonists. [Related pubchem assays (depositor defined):AID1300, AID1808, AID504735, AID631]; type: protein assay
[8] = target: Peroxisome proliferator-activated receptor gamma/Nuclear receptor coactivator 3 (Homo sapiens, UniProt P37231); assay: as §1, with “3 (SRC-3)” for “1 (SRC-1)”, “assays: 1301 (Confirmation screen.), 1048 (Primary screen.)]” for “assays (depositor defined):AID1300, AID1808, AID504735, AID631]”; type: functional
[9] = target: Peroxisome proliferator-activated receptor gamma/Nuclear receptor coactivator 2 (Homo sapiens, UniProt P37231); assay: TR-FRET dose response biochemical High Throughput Screening assay for agonists of the steroid receptor coactivator 2 (SRC-2) recruitment by the peroxisome proliferator-activated receptor gamma (PPAR gamma): non-selective agonists. [Related pubchem assays: 1297, 1032 ]; type: functional
[10] = target: Mitogen-activated protein kinase 10 (Homo sapiens, UniProt P53779); assay: Dose response biochemical screening assay for inhibitors of c-Jun N-Terminal Kinase 3 (JNK3). [Related pubchem assays: 746 ]
[11] = target: T2, Orexin/Hypocretin receptor type 1 (Homo sapiens, UniProt O43613); assay: Homogeneous Time Resolved Fluorescence (HTRF)-based cell-based high throughput dose response assay for antagonists of the orexin 1 receptor (OX1R; HCRTR1). [Related pubchem assays (depositor defined):AID434989, AID435008, AID463079, AID485270, AID492963, AID492964, AID492965, AID493232, AID504717, AID504718]; type: functional
T2 sequence (O43613 whole entry): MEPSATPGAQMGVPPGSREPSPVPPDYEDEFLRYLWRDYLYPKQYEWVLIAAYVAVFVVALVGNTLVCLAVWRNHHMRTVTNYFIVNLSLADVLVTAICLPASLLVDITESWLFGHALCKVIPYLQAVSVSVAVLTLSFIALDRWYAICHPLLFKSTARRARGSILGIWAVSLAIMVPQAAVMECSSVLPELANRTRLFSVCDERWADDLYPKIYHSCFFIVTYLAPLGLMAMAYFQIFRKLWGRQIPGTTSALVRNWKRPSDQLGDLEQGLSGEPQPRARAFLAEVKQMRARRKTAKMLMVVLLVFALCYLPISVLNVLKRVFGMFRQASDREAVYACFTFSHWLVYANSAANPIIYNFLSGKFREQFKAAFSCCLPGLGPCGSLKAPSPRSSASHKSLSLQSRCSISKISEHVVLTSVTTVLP

Orexin receptor type 2 [12] = target: T3, Orexin receptor type 2 (Homo sapiens, UniProt O43614); assay: Counterscreen assay for antagonists of the orexin 1 receptor (OX1R; HCRTR1): Homogeneous Time Resolved Fluorescence (HTRF)-based cell-based dose response assay for antagonists of the orexin 2 receptor (OX2R; HCRTR2), run by assay provider.; type: functional
T3 sequence (O43614 whole entry): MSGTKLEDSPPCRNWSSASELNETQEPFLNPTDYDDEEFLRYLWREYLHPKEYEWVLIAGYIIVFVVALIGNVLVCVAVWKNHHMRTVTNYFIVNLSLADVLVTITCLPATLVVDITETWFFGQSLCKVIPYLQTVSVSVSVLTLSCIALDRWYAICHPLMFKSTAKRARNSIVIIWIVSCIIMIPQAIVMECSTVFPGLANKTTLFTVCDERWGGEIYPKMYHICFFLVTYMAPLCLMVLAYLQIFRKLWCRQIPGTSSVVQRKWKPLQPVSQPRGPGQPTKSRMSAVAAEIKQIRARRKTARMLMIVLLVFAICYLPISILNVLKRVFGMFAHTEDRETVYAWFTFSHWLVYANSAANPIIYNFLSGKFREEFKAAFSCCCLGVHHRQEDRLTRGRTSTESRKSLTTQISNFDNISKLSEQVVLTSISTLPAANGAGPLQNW

[13] = viability of uninfected HEp-2 cells – cell-based, HTS, cytotoxicity control for RSV inhibitor project, dose response (AID 2410); type: functional; conditions: human respiratory syncytial virus
[14] = (§2) Counterscreen for antagonists of the orexin 1 receptor (OX1R; HCRTR1): Fluorescence-based cell-based high throughput dose response assay to identify antagonists of the parental CHO cell line. [Related pubchem assays (depositor defined):AID434989, AID435008, AID463079, AID485270, AID492963, AID492964, AID492965, AID493232, AID504699, AID504701]; type: functional
[15] = target: T2, Orexin/Hypocretin receptor type 1; assay: Fluorescence-based cell-based high throughput dose response assay for antagonists of the orexin 1 receptor (OX1R; HCRTR1). [Related pubchem assays (depositor defined):AID434989, AID435008, AID463079, AID485270, AID492963, AID492964, AID492965, AID493232, AID504717, AID504718]; type: functional
CHO-K1 = assay: as §2, with “Homogeneous time resolved fluorescence (HTRF)-based” for “Fluorescence-based”, “cell-based” for “cell-based high throughput”, “CHO-K1” for “CHO”; type: functional; conditions: Cricetulus griseus;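 further: potency for inhibition of ATP-stimulated IP1 production as antagonists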
Orexin receptor type 2 [16] = target: T3, Orexin receptor type 2; assay: Counterscreen assay for antagonists of the orexin 1 receptor (OX1R; HCRTR1): Fluorescence-based cell-based dose response assay for antagonists of the orexin 2 receptor (OX2R; HCRTR2), run by assay provider.; type: functional
[17] = loss of viability in HepG2 cells – cell-based, CellTiter-Glo, cherry-picked, cytotoxicity control for Shn3 inhibitor project, dose response (AID 624134); type: functional
Protein Wnt-3a = Protein Wnt-3a (Mus musculus, UniProt P27467); assay: antagonism of Wnt3a pathway luciferase reporter – Wnt-LIGHT cells, luminescence, selectivity assay for Gli-SUFU antagonist project, dose response (AID 651570); type: functional; conditions: read-out: IC50_Mean;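 further: Wnt-LIGHT reporter cells stimulated with conditioned medium from Wnt3a-producing cells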
[18] = reduction of Shn3 3'UTR-driven luciferase in osteoblasts – cell-based, Clone20 osteoblasts, firefly luciferase, cherry-picked, dose response (AID 624132); type: functional;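 further: firefly luciferase luminescence from reporter carrying the Shn3 3'UTR in osteoblasts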
INS1 = assay: INS-1E survival protection against cytokine death – cell-based, luminescence, retest, dose response (AID 449756); type: functional; conditions: Rattus norvegicus;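 further: cell death triggered by IL-1 beta plus TNF-alpha plus IFN-gamma mixture; protective hits raise ATP signal compared with cytokine alone wells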
[19] = NIH3T3 cell viability loss – ATP luminescence, mouse fibroblasts, counter-screen, dose response (AID 2010); type: functional, cell-based;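 further: cells exposed to compound for about 90 hours before reading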
[20] = Trypanosoma cruzi growth suppression in host cells – NIH3T3 host cells, beta-gal luminescence, confirmation (AID 2044); type: functional, cell-based;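 further: intracellular parasites grown in NIH/3T3 mouse fibroblasts as host cells; luminescent beta-galactosidase reporter signal from transgenic T. cruzi replicating inside host cells; inhibitors lower the luminescence signal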
Steroidogenic factor 1 = Steroidogenic factor 1 (Homo sapiens, UniProt Q13285); assay: Counterscreen for inverse agonists of the liver receptor homolog-1 (LRH-1; NR5A2): Luminescence-based cell-based high throughput dose response assay to identify inverse agonists of the Steroidogenic Factor 1 Nuclear Receptor (SF1; NR5A1).; type: functional
Cytochrome P450 2C9 = Cytochrome P450 2C9 (Homo sapiens, UniProt P11712)
[21] = nonselective StAR promoter luciferase inhibitors – cell-based, luminescence, luciferase reporter, counter-screen for LRH-1 inverse agonist project, dose response (AID 651969); type: functional
[22] = target: Nuclear receptor subfamily 5 group A member 2 (Homo sapiens, UniProt O00482); type: functional, cell-based;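 further: HEK293T cells transfected with LRH-1 and a StAR promoter luciferase reporter; potency for inhibitors that lower LRH-1 driven reporter light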
Sequence of Nuclear receptor subfamily 5 group A member 2 (O00482 whole entry): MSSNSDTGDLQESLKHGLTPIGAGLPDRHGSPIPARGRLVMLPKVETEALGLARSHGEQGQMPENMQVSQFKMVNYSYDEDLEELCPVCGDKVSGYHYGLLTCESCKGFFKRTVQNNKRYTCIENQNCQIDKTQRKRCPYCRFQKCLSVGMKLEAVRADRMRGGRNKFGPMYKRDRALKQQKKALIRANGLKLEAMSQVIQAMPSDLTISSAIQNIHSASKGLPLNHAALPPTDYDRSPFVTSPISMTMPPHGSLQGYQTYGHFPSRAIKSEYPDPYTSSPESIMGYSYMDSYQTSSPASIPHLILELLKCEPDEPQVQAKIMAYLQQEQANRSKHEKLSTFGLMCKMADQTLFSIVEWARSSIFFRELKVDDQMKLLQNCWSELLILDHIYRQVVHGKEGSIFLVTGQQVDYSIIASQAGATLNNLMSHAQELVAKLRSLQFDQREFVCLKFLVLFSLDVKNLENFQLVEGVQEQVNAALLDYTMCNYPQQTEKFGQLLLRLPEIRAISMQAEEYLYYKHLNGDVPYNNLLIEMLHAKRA

Sequence of Protein Wnt-3a (P27467 whole entry): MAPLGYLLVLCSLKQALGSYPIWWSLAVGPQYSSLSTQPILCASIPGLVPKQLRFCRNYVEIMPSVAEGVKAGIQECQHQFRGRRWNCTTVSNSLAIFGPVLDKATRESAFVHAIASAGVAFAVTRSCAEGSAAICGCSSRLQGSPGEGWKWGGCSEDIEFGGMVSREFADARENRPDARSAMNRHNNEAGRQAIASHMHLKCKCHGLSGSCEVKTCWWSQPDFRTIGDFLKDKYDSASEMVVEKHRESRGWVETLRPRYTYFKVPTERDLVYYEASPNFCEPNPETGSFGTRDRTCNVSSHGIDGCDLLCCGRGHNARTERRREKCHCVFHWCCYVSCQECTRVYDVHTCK
Sequence of Low molecular weight phosphotyrosine protein phosphatase (P24666 whole entry, the tested form may be a part): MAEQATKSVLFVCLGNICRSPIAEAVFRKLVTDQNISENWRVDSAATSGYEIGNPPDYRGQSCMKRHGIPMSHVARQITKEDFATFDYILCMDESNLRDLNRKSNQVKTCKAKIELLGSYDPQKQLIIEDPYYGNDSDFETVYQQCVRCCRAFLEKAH
Sequence of Photoreceptor-specific nuclear receptor (Q9Y5X4 whole entry, the tested form may be a part): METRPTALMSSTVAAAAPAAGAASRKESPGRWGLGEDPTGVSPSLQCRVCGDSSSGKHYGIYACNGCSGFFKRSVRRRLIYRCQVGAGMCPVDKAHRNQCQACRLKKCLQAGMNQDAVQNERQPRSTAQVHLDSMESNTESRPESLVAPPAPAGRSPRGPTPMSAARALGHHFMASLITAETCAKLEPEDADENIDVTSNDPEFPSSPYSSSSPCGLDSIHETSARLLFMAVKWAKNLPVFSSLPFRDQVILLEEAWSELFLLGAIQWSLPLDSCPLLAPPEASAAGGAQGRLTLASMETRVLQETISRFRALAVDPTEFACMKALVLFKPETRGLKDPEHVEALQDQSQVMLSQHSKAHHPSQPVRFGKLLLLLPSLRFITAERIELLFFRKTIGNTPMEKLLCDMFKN
Sequence of Steroidogenic factor 1 (Q13285 whole entry): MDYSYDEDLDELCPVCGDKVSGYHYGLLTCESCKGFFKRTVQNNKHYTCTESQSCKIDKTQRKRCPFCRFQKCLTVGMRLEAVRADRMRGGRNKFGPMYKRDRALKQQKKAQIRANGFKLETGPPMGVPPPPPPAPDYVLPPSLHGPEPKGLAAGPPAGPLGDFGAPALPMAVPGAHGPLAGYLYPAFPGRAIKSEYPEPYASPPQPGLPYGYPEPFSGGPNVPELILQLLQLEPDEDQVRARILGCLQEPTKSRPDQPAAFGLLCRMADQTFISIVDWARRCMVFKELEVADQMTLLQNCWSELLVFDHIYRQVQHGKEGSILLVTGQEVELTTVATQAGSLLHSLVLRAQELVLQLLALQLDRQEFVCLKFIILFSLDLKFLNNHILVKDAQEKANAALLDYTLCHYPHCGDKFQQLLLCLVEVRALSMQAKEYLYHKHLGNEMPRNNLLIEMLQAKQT
Sequence of Mitogen-activated protein kinase 10 (P53779 whole entry): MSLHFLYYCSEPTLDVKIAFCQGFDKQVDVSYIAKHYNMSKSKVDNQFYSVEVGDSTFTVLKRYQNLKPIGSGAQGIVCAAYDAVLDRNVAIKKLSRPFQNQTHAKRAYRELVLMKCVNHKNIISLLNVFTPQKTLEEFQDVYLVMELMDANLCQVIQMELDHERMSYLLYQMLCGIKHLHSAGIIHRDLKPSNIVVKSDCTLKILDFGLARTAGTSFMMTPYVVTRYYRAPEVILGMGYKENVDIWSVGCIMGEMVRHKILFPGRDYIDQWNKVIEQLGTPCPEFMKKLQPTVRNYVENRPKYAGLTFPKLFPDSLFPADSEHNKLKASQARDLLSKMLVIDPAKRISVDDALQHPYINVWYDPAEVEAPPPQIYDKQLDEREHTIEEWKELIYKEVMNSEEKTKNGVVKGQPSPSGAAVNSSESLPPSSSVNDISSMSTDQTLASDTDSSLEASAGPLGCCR
Sequence of ADP-ribosylation factor GTPase-activating protein 1 (Q62848 whole entry): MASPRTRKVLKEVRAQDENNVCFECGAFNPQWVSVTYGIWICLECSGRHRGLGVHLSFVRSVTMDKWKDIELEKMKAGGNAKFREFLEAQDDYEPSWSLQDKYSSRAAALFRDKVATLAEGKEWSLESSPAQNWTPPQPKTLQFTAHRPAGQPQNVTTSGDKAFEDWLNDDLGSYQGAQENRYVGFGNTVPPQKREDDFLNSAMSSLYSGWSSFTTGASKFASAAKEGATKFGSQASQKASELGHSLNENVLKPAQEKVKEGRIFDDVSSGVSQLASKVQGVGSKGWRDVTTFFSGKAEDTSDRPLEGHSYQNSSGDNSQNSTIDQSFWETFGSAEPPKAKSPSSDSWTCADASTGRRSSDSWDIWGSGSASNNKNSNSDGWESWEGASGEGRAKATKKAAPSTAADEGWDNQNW
Sequence of Cytochrome P450 2C9 (P11712 whole entry): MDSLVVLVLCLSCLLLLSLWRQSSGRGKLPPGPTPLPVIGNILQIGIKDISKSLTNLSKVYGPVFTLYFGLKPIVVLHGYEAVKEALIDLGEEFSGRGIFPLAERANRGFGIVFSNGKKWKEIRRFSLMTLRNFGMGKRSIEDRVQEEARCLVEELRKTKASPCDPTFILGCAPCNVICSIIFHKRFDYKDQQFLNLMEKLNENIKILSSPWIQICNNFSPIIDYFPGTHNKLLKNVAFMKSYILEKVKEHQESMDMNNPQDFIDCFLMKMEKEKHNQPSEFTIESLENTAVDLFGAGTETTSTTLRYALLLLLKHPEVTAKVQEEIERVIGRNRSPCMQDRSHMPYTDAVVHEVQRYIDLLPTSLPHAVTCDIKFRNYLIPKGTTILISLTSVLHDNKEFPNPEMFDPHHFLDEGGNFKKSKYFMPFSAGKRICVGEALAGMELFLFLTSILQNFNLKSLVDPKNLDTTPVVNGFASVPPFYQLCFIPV

- IC50 [1]: 42.5 µM (active)
- IC50 [2]: 9.28 µM (active)
Compound: COc1ccc(OC)c(/C=C/C(=O)OCC(=O)Nc2nnc(-c3ccccc3)o2)c1

- IC50 [3]: 57.4 µM (inactive)
Compound: NC(=O)c1ccc(NC(=O)COC(=O)/C=C/c2cn(-c3ccccc3)nc2-c2cccnc2)cc1

- IC50 [4]: 80 µM (inactive)
Compound: Cc1csc2nc(O)c(C(=O)NCc3ccc4c(c3)OCO4)c(=O)n12

Compound: Cc1ccnc(NC(=O)CSc2cc(=O)n(C)c3ccccc23)c1
- IC50 [5]: 0.664 µM (active)
- AC50 [6]: 1.03 µM (active)
- EC50 [7]: > 79.4 µM (inactive)
- EC50 [8]: > 79.4 µM (not active)
- EC50 [9]: > 79.4 µM (not active)
- IC50 [10]: > 93.1 µM (not active)

Compound: CNC(=O)NC(=O)C(C)OC(=O)c1c2c(nc3ccccc13)/C(=C/c1cccs1)CC2 (stereo unspecified)
- IC50 [11]: 4.12 µM (active)
- AC50 [6]: 2.41 µM (active)
- IC50 (Orexin receptor type 2 [12]): > 50 µM (inactive)
- CC50 [13]: > 50 µM (active)
- IC50 [14]: > 49.7 µM (inactive)
- IC50 [15]: 5.01 µM (active)
- IC50 (CHO-K1): > 66.2 µM (inactive)
- IC50 (Orexin receptor type 2 [16]): 8.7 µM (active)

Compound: COc1ccc(NS(=O)(=O)c2ccc(N3CCOCC3)c(N)c2)cc1
- AC50 [17]: 3.99 µM (active)
- IC50 (Protein Wnt-3a): 1.16 µM (active)
- AC50 [18]: 1.08 µM (active)
- AC50 (INS1): 2.94 µM (active)

- IC50 (Protein Wnt-3a): 3.96 µM (active)
Compound: CCOC(=O)c1sc2nc(CC(=O)OC)nc(NCc3ccc(Cl)cc3)c2c1C

Compound: COc1ccc(/C=C/c2nc(N)nc(-c3ccccc3O)n2)cc1OC
- IC50 [11]: 2.69 µM (active)
- IC50 (Orexin receptor type 2 [12]): > 50 µM (inactive)
- CC50 [13]: > 50 µM (active)
- IC50 [14]: > 49.8 µM (inactive)
- EC50 [19]: > 60 µM (inconclusive)
- IC50 [15]: 3.97 µM (active)
- IC50 (CHO-K1): > 66.3 µM (inactive)
- EC50 [20]: 2.09 µM (active)
- IC50 (Orexin receptor type 2 [16]): 26.9 µM (inactive)

Compound: COc1ccc(NC(=O)COC(=O)c2c(-c3ccccc3)noc2C)cc1
- IC50 (Steroidogenic factor 1): 1.43 µM (active)
- AC50 (Cytochrome P450 2C9): 20 µM (inconclusive)
- IC50 [21]: 35.9 µM (inactive)
- IC50 [22]: 5.15 µM (active)
